Measurements taken from article PMC4822050, “Hemi-methylated DNA opens a closed conformation of UHRF1 to facilitate its histone recognition” (Nature Communications, 2016).

How the values were obtained:
[1] = system: H3 peptide (1–17) (H3K9me0); test: ITC, H3 (H3K9me0) peptide (1-17) titrated into UHRF1 proteins; assay type: binding
Description: (§1) For competition ITC experiments: the indicated proteins were pre-incubated with competitive peptide, protein or hm-DNA (at 1:2 molar ratio if not specified) for 10 min followed by ITC measurements as described above. Proteins, DNA and peptides were prepared within ITC buffer containing 10 mM HEPES, pH 8.0, 100 mM NaCl. The data were fitted by software Origin 7.0. All ITC results were summarized in Supplementary Table 2 and raw data were shown in Supplementary Fig. 9.

FAM-16bp-HM-DNA = test: Fluorescence polarization, 16-bp FAM-hm-DNA; assay type: binding; settings: FP, DNA length series
Description: (§2) FP measurements were performed at 25 °C on Synergy 4 Microplate Reader (BioTek). The 16-bp and 20-bp FAM-labelled hm-DNA (lower strand: 5′-GTGTCAGXGCATGGCC-3′ and 5′-CCGTGTCAGXGCATGGCCAT-3′, respectively. X=5-methyldeoxycytosine) were used in the FP experiment to test the effect of DNA length on the protein/DNA interaction. All experiments were performed in triplicate. The curves were fitted by GraphPad Prism 5. For salt concentration-dependent FP experiments, the reaction buffer contains 50 mM or 150 mM NaCl, respectively.

FAM-12bp-HM-DNA = test: Fluorescence polarization, 12-bp FAM-hm-DNA; assay type: binding; settings: FP
Description: A 6-carboxy-fluorescein (FAM)-labelled primer, 5′-CCATGCGCTGAC-3′, was annealed to a primer 5′-GTCAGXGCATGG-3′ (X=5-methyldeoxycytosine). The hemi-methylated double-strand DNA was used in both electrophoretic mobility-shift assay and FP assays. […] The samples were subjected to a 10% polyacrylamide gel electrophoresis and run in 0.5 × Tris-borate-EDTA buffer at 100 V for 1 h at 4 °C. The results were visualized on Tanon-5200 Chemiluminescent Imaging System (Tanon Science & Technology Co., Ltd).
as §2

FAM-20bp-HM-DNA = test: Fluorescence polarization, 20-bp FAM-hm-DNA; assay type: binding; settings: FP, DNA length series
Description: as §2

[2] = biological target: PHD (residues 307–366) of UHRF1; test: ITC, PHD titrated into UHRF1 domains; assay type: binding, human; settings: 18 °C, PHD in syringe, named protein in cell, 10 mM HEPES pH 8.0, 100 mM NaCl
Description: as §1

hm-DNA (12 bp) = test: ITC, hm-DNA titrated into UHRF1 domains; assay type: binding; settings: 18 °C, 12-bp hm-DNA in syringe, named protein in cell, 10 mM HEPES pH 8.0, 100 mM NaCl
Description: as §1

RFTS^DNMT1 = test: ITC, RFTS of DNMT1 with SRA or SRA-Spacer; assay type: binding; settings: 18 °C, RFTS^DNMT1 with named protein, 10 mM HEPES pH 8.0, 100 mM NaCl
Description: as §1

[3] = biological target: T1, TTD (residues 134–285) of UHRF1 (Homo sapiens, UniProt Q96T88); test: ITC, TTD titrated into Spacer variants and other UHRF1 fragments; assay type: binding; settings: TTD in syringe
T1 construct: TTD (residues 134–285); GST (N, cleaved yes); made in house; host or cells: E. coli BL21 (DE3)
T1 sequence (Q96T88 134-285): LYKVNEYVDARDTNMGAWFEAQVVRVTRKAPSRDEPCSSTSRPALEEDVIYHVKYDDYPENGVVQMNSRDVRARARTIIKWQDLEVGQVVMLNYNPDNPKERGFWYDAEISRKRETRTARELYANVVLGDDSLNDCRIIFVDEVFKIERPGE
Description: as §1

[4] = system: DAPI foci (pericentromeric heterochromatin) in NIH3T3 cells; test: Subcellular localization of GFP-tagged UHRF1 in NIH3T3 cells; assay type: cell-based; settings: GFP-tagged protein transiently overexpressed in NIH3T3 cells, 36 h after transfection; at least 100 cells counted; repeated three times
Description: NIH3T3 cells were obtained from the Shanghai Institute of Biochemistry and Cell Biology. Wild type and mutants of UHRF1 were sub-cloned into pEGFP-C1 vector. Transient transfections of NIH3T3 cells were carried out using Lipofectamine 2000 (Invitrogen). The NIH3T3 cells were grown on glass coverslips and harvested in 36 h after transfection. The images were acquired and examined as previously described. Briefly, cells were fixed with 4% paraformaldehyde for 25 min, then washed with PBS three times. Coverslips were mounted with Antifade reagent containing DAPI (Molecular Probes) on slides and examined with a confocal microscopy.

H3K9me3 peptide (1–17) = test: ITC, H3K9me3 peptide (1-17) titrated into UHRF1 proteins; assay type: binding; settings: ITC, 18 °C; named protein 0.05 mM in cell, H3K9me3 (1-17) 0.5 mM in syringe; 10 mM HEPES pH 8.0, 100 mM NaCl; read-out: KD
Description: as §1

[5] = 25 °C, 20 min, 20 mM HEPES pH 7.5, 175 mM NaCl, 8% glycerol, 1 mM DTT, triplicate, Fig. 5b and Supplementary Table 4

PHD: plant homeodomain of human UHRF1 (residues 307–366) (DDVNRLCRVCACHLCGGRQDPDKQLMCDECDMAFHIYCLDPPLSSVPSEDEWYCPECRND; UniProt Q96T88 307-366, looked up, fragment)
fold higher binding affinity to H3K9me0 peptide than full-length UHRF1 ([1]; ITC KD ratio): ~34 fold

SRA: SET-and-RING-associated domain of human UHRF1 (residues 414–617)
Kd (FAM-16bp-HM-DNA): 29.4 ± 9.74 µM
Kd (FAM-12bp-HM-DNA; 12-bp hm-DNA, 50 mM NaCl): 0.15 ± 0.018 µM
Kd (FAM-12bp-HM-DNA; 12-bp hm-DNA, 150 mM NaCl): 5.92 ± 1.32 µM
Kd (FAM-12bp-HM-DNA; [5]): 9.23 ± 3.07 µM
Kd (FAM-12bp-HM-DNA; DNA length series, Supplementary Table 5, 12-bp hm-DNA): 12.8 ± 2.07 µM
Kd (FAM-20bp-HM-DNA): 9.59 ± 4.78 µM
Kd [2]: 26.7 ± 12.1 µM
Kd (hm-DNA (12 bp)): 25.1 µM
KD (RFTS^DNMT1): no detectable interaction

Spacer587-641: Spacer fragment, residues 587–641 (PGPWTKEGKDRIKKLGLTMQYPEGYLEALANREREKENSKREEEEQQEGGFASPR; left off: GST, end not stated, cleaved)
KD ([3]; ITC, 18 °C, named protein or peptide in cell, 10 mM HEPES pH 8.0, 100 mM NaCl): no detectable interaction

Spacer642-674: Spacer fragment, residues 642–674 (TGKGKWKRKSAGGGPSRAGSPRRTSKKTKVEPY; left off: GST, end not stated, cleaved)
N ([3]; ITC stoichiometry): 1.09±0.00765
ΔH ([3]; ITC): -11.3 kcal/mol
ΔS ([3]; ITC): -11.2 cal/mol/deg

UHRF1: recombinant human UHRF1 (residues 1–793); GFP-tagged in the cell assay
Kd (FAM-12bp-HM-DNA; [5]): 0.35 µM
Kd ([1]; ITC, 18 °C, named protein 0.05 mM in cell, H3 (1-17) 0.5 mM in syringe, 10 mM HEPES pH 8.0, 100 mM NaCl): 26 ± 7.01 µM
percentage of cells showing co-localization with DAPI foci [4]: 74.6%
Kd (H3K9me3 peptide (1–17)): 4.61 ± 0.47 µM
